Results reported in patent US11279733B2, “Peptide antibiotics” (priority 2017, dated 2022).
In brackets after ≈: the same amount, converted by molar mass. Like-named read-outs stand apart in the source and are kept apart here. Positions of bridges follow the written chain, without caps; N, C: chain ends. Non-standard residues stand in square brackets, D forms with d. Residues, ends and D or L forms follow the SMILES beside them. *: point of attachment. Bip = N[C@@H](Cc1ccc(-c2ccccc2)cc1)C(=O)O; Decanoyl(3R-OH) = CCCCCCC[C@@H](O)CC(=O)*; dBip = N[C@H](Cc1ccc(-c2ccccc2)cc1)C(=O)O; dDab = NCC[C@@H](N)C(=O)O; Dab = NCC[C@H](N)C(=O)O; Dap = NC[C@H](N)C(=O)O

Legend:
A. baumannii ATCC 19606 = test system: A. baumannii ATCC 19606
Outline: (§1)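 Mid-log cultures grown in Mueller Hinton broth at 37° C were tested by 2-fold broth microdilution at 5×10^5 CFU/mL final. Compounds were dissolved in water and tested over a final range of 32 to 0.015 μg/mL.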

A. baumannii GN_093 PmxR = test system: A. baumannii GN_093 PmxR
Outline: as §1

E. coli ATCC 25922 = test system: E. coli ATCC 25922
Outline: as §1

K. pneumoniae ATCC 13883 = test system: K. pneumoniae ATCC 13883
Outline: as §1

[1] = test system: K. pneumoniae ATCC 700603, MDR
Outline: as §1

[2] = test system: K. pneumoniae ATCC BAA-2146, NDM-1 pos
Outline: as §1

[3] = test system: K. pneumoniae GN_102 PmxR
Outline: as §1

[4] = test system: K. pneumoniae GN_106, PmxR
Outline: as §1

P. aeruginosa ATCC 27853 = test system: P. aeruginosa ATCC 27853
Outline: as §1

[5] = test system: P. aeruginosa GN_043, PmxR
Outline: as §1

[6] = test system: P. aeruginosa GN_105, PmxR
Outline: as §1

[7] = test system: S. aureus ATCC 25923, MSSA
Outline: as §1

in vitro = settings: human
Outline: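 HK2 cells were seeded at 2000 per well in DMEM/F12 with 10% FBS and left to attach for 24 h at 37 °C, 5% CO2. They were then exposed for 24 h to 3-fold peptide dilutions starting from 600 μM solutions in quadruplicate. LDH release was read at 450 nm, and CC50 was fitted from dose-response curves.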

Row | Compound | MIC A. baumannii ATCC 19606 (A. baumannii ATCC 19606; ATCC 19606) [µg/mL] | MIC A. baumannii GN_093 PmxR (A. baumannii GN_093 PmxR; GN 093 PmxR) [µg/mL] | MIC E. coli ATCC 25922 (E. coli ATCC 25922; ATCC 25922) [µg/mL] | MIC K. pneumoniae ATCC 13883 (K. pneumoniae ATCC 13883; ATCC 13883) [µg/mL] | MIC K. pneumoniae ATCC 700603, MDR ([1]; ATCC 700603) [µg/mL] | MIC K. pneumoniae ATCC BAA-2146, NDM-1 pos ([2]; ATCC BAA-2146) [µg/mL] | MIC K. pneumoniae GN_102 PmxR ([3]; GN 102 PmxR) [µg/mL] | MIC K. pneumoniae GN_106, PmxR ([4]; GN 106, PmxR) [µg/mL] | MIC P. aeruginosa ATCC 27853 (P. aeruginosa ATCC 27853; ATCC 27853) [µg/mL] | MIC P. aeruginosa GN_043, PmxR ([5]; P. aeruginosa GN_043, PmxR) [µg/mL] | MIC P. aeruginosa GN_105, PmxR ([6]; GN 105, PmxR) [µg/mL] | MIC S. aureus ATCC 25923, MSSA ([7]; ATCC 25923) [µg/mL] | CC50 at 24 h (in vitro) [µM] | MIC P. aeruginosa GN_043, PmxR ([5]; polymyxin-resistant) [µg/mL] | also measured
1 | CCCCCCC[C@@H](O)CC(=O)N[C@H](CCN)C(=O)N[C@H]1CCNC(=O)[C@H](CC(C)C)NC(=O)[C@H](CCN)NC(=O)[C@H](CCN)NC(=O)[C@H](CC(C)C)NC(=O)[C@@H](C)NC(=O)[C@H](CCN)NC1=O [compound 5006, 3(R)OH-nC9CO-D-Dab-cyc[L-Dab-L-Dab-D-Ala-L-Leu-L-Dab-L-Dab-L-Leu]] ({Decanoyl(3R-OH)}-[dDab][Dab][Dab][dA]L[Dab][Dab]L; lactam 2-C) | >32 | >32 | 16 (≈ 16.5 µM) | 32 (≈ 33 µM) | >32 | 32 (≈ 33 µM) | 8 (≈ 8.26 µM) | 32 (≈ 33 µM) | 16 (≈ 16.5 µM) | 8 (≈ 8.26 µM) | 32 (≈ 33 µM) | >32 | 277 | – | –
2 | CCCCCCC[C@@H](O)CC(=O)N[C@H](CCN)C(=O)N[C@H]1CCNC(=O)[C@H](CC(C)C)NC(=O)[C@H](CCN)NC(=O)[C@H](CCN)NC(=O)[C@H](CC(C)C)NC(=O)[C@@H](Cc2ccc(-c3ccccc3)cc2)NC(=O)[C@H](CCN)NC1=O [compound 5010, 3(R)OH-nC9CO-D-Dab-cyc[L-Dab-L-Dab-D-Bip-L-Leu-L-Dab-L-Dab-L-Leu]] ({Decanoyl(3R-OH)}-[dDab][Dab][Dab][dBip]L[Dab][Dab]L; lactam 2-C) | 4 (≈ 3.57 µM) | 4 (≈ 3.57 µM) | 2 (≈ 1.78 µM) | 2 (≈ 1.78 µM) | 4 (≈ 3.57 µM) | 4 (≈ 3.57 µM) | 4 (≈ 3.57 µM) | 2 (≈ 1.78 µM) | 4 (≈ 3.57 µM) | 2 (≈ 1.78 µM) | 2 (≈ 1.78 µM) | 2 (≈ 1.78 µM) | 75 | – | –
3 | CCCCCCC[C@@H](O)CC(=O)N[C@H](CCN)C(=O)N[C@H]1CCNC(=O)[C@H](Cc2ccccc2)NC(=O)[C@H](CN)NC(=O)[C@H](CCN)NC(=O)[C@H](CC(C)C)NC(=O)[C@@H](Cc2ccc(-c3ccccc3)cc2)NC(=O)[C@H](CCN)NC1=O [compound 5384, 3(R)OH-nC9CO-D-Dab-cyc[L-Dab-L-Dab-D-Bip-L-Leu-L-Dab-L-Dap-L-Phe]] ({Decanoyl(3R-OH)}-[dDab][Dab][Dab][dBip]L[Dab][Dap]F; lactam 2-C) | 8 (≈ 7.01 µM) | 4 (≈ 3.51 µM) | 4 (≈ 3.51 µM) | 4 (≈ 3.51 µM) | 8 (≈ 7.01 µM) | 4 (≈ 3.51 µM) | 16 (≈ 14 µM) | 8 (≈ 7.01 µM) | 4 (≈ 3.51 µM) | – | 4 (≈ 3.51 µM) | 4 (≈ 3.51 µM) | 24 | 4 (≈ 3.51 µM) | –
4 | CCCCCCC[C@@H](O)CC(=O)N[C@H](CCN)C(=O)N[C@H]1CCNC(=O)[C@H](Cc2ccccc2)NC(=O)[C@H](CN)NC(=O)[C@H](CCN)NC(=O)[C@H](CC(C)C)NC(=O)[C@@H](Cc2ccccc2)NC(=O)[C@H](CCN)NC1=O [compound 5385, 3(R)OH-nC9CO-D-Dab-cyc[L-Dab-L-Dab-D-Phe-L-Leu-L-Dab-L-Dap-L-Phe]] ({Decanoyl(3R-OH)}-[dDab][Dab][Dab][dF]L[Dab][Dap]F; lactam 2-C) | 8 (≈ 7.52 µM) | 16 (≈ 15 µM) | 4 (≈ 3.76 µM) | 4 (≈ 3.76 µM) | 8 (≈ 7.52 µM) | 4 (≈ 3.76 µM) | 8 (≈ 7.52 µM) | 16 (≈ 15 µM) | 2 (≈ 1.88 µM) | – | 2 (≈ 1.88 µM) | 8 (≈ 7.52 µM) | 41 | 2 (≈ 1.88 µM) | –
5 | CCCCCCC[C@@H](O)CC(=O)N[C@H](CCN)C(=O)N[C@H]1CCNC(=O)[C@H]([C@@H](C)O)NC(=O)[C@H](CN)NC(=O)[C@H](CCN)NC(=O)[C@H](CC(C)C)NC(=O)[C@@H](Cc2ccccc2)NC(=O)[C@H](CCN)NC1=O [compound 5386, 3(R)OH-nC9CO-D-Dab-cyc[L-Dab-L-Dab-D-Phe-L-Leu-L-Dab-L-Dap-L-Thr]] ({Decanoyl(3R-OH)}-[dDab][Dab][Dab][dF]L[Dab][Dap]T; lactam 2-C) | – | – | – | – | – | – | – | – | – | 1 (≈ 0.982 µM) | – | – | 154 | – | MIC A. baumannii ATCC 19606 (A. baumannii ATCC 19606; A. baumannii ATCC 19606): >32 µg/mL; MIC A. baumannii GN_093 PmxR (A. baumannii GN_093 PmxR; A. baumannii GN_093 PmxR): >32 µg/mL; MIC E. coli ATCC 25922 (E. coli ATCC 25922; E. coli ATCC 25922): 2 µg/mL (≈ 1.96 µM); MIC K. pneumoniae ATCC 13883 (K. pneumoniae ATCC 13883; K. pneumoniae ATCC 13883): 16 µg/mL (≈ 15.7 µM); MIC K. pneumoniae ATCC 700603, MDR ([1]; K. pneumoniae ATCC 700603, MDR): 2 µg/mL (≈ 1.96 µM); MIC K. pneumoniae ATCC BAA-2146, NDM-1 pos ([2]; K. pneumoniae ATCC BAA-2146, NDM-1 pos): 4 µg/mL (≈ 3.93 µM); MIC K. pneumoniae GN_102 PmxR ([3]; K. pneumoniae GN_102 PmxR): 32 µg/mL (≈ 31.4 µM); MIC K. pneumoniae GN_106, PmxR ([4]; K. pneumoniae GN_106, PmxR): >32 µg/mL; MIC P. aeruginosa ATCC 27853 (P. aeruginosa ATCC 27853; P. aeruginosa ATCC 27853): 4 µg/mL (≈ 3.93 µM); MIC P. aeruginosa GN_105, PmxR ([6]; P. aeruginosa GN_105, PmxR): 4 µg/mL (≈ 3.93 µM); MIC S. aureus ATCC 25923, MSSA ([7]; S. aureus ATCC 25923, MSSA): >32 µg/mL
6 | CCCCCCC[C@@H](O)CC(=O)N[C@H](CCN)C(=O)N[C@H]1CCNC(=O)[C@H]([C@@H](C)O)NC(=O)[C@H](CCN)NC(=O)[C@H](CCN)NC(=O)[C@H](CC(C)C)NC(=O)[C@@H](Cc2ccccc2)NC(=O)[C@H](CCN)NC1=O [compound 5387, 3(R)OH-nC9CO-D-Dab-cyc[L-Dab-L-Dab-D-Phe-L-Leu-L-Dab-L-Dab-L-Thr]] ({Decanoyl(3R-OH)}-[dDab][Dab][Dab][dF]L[Dab][Dab]T; lactam 2-C) | 8 (≈ 7.75 µM) | >32 | 2 (≈ 1.94 µM) | 2 (≈ 1.94 µM) | 2 (≈ 1.94 µM) | 1 (≈ 0.969 µM) | >32 | >32 | 1 (≈ 0.969 µM) | – | >32 | >32 | 210 | 2 (≈ 1.94 µM) | –
7 | CCCCCCC[C@@H](O)CC(=O)N[C@H](CCN)C(=O)N[C@H]1CCNC(=O)[C@H]([C@@H](C)O)NC(=O)[C@H](CCNC(=O)[C@@H](N)CCCNC(=N)N)NC(=O)[C@H](CCN)NC(=O)[C@H](CC(C)C)NC(=O)[C@@H](Cc2ccccc2)NC(=O)[C@H](CCN)NC1=O [compound 5603, 3(R)OH-nC9CO-D-Dab-cyc[L-Dab-L-Dab-D-Phe-L-Leu-L-Dab-L-Dab(L-Arg)-L-Thr]] ({Decanoyl(3R-OH)}-[dDab][Dab][Dab][dF]L[Dab][Dab](Arg)T; lactam 2-C) | >32 | >32 | 32 (≈ 26.9 µM) | >32 | 16 (≈ 13.5 µM) | >32 | >32 | >32 | 8 (≈ 6.73 µM) | 32 (≈ 26.9 µM) | 32 (≈ 26.9 µM) | >32 | 103 | – | –
8 | CCCCCCC[C@@H](O)CC(=O)N[C@H](CCN)C(=O)N[C@H]1CCNC(=O)[C@H]([C@@H](C)O)NC(=O)[C@H](CCN)NC(=O)[C@H](CCN)NC(=O)[C@H](Cc2ccc(-c3ccccc3)cc2)NC(=O)[C@@H](Cc2ccccc2)NC(=O)[C@H](CCN)NC1=O [compound 5607, 3(R)OH-nC9CO-D-Dab-cyc[L-Dab-L-Dab-D-Phe-L-Bip-L-Dab-L-Dab-L-Thr]] ({Decanoyl(3R-OH)}-[dDab][Dab][Dab][dF][Bip][Dab][Dab]T; lactam 2-C) | 8 (≈ 7 µM) | >32 | 8 (≈ 7 µM) | 16 (≈ 14 µM) | 4 (≈ 3.5 µM) | 4 (≈ 3.5 µM) | 32 (≈ 28 µM) | 32 (≈ 28 µM) | 4 (≈ 3.5 µM) | 2 (≈ 1.75 µM) | 2 (≈ 1.75 µM) | 4 (≈ 3.5 µM) | 19 | – | –
